{
  "source": "patent US20060281818A1",
  "about": "“Method for treating mucosal disorders” (SUCAMPO AG, NORTH CAROLINA STATE UNIVERSITY, priority 2005, published 2006)",
  "key": {"mammary carcinoma": {"test_system": "mammary carcinoma", "test": "Incidence of mammary carcinoma, 104-week oral gavage study", "format": "in vivo", "conditions": "104 weeks, female rats", "description": "Female Crl:CD(SD)IGS BR VAF/Plus rats were assigned to 4 study groups (65/group). Groups 2 through 4 received 20, 100, or 400 μg/kg/day of COMPOUND A, respectively, by oral gavage for 104 weeks. The control group (Group 1) received 10 the vehicle, a 1% aqueous solution of Polysorbate 80. The dose volume was 5 mL/kg/day for all groups. When unscheduled death of animal occurred during the study period, a necropsy was performed on the animal. After 104 weeks of treatment, all surviving animals were sacrificed and necropsied. Each rat was evaluated microscopically for the occurrence of mammary carcinoma."}, "[1]": {"test_system": "ischemia-injured porcine ileum", "test": "Ussing chamber: short circuit current (Isc) and transepithelial electrical resistance (TER)", "format": "cell-based", "conditions": "for absolute change in Isc (Δ Isc): mean±SE", "description": "(§1) Six to eight-week-old Yorkshire crossbred pigs of either sex were housed individually, and maintained on a commercial pelleted feed. Pigs were held off feed for 24 hours prior to experimental surgery. General anesthesia was induced with xylazine (1.5 mg/kg, IM), ketamine (11 mg/kg, IM), and thiopental (15 mg/kg, IV) and was maintained with intermittent infusion of thiopental (6-8 mg/kg/hr). Pigs were placed on a heating pad and ventilated with 100% O2 via a tracheotomy using a time-cycled ventilator. The jugular vein and carotid artery were cannulated and blood gas analysis was performed to confirm normal pH and partial pressures of CO2 and O2. Lactated Ringers solution was administered intravenously at a maintenance rate of 15 ml/kg/hr. The ileum was approached via ventral midline incision. Ileal segments were delineated by ligating the intestine at 10 cm intervals, and subjected to ischemia by occluding the local mesenteric blood supply for 45 minutes.\nFollowing the 45-minute ischemic period, tissues were harvested from the pig and the mucosa was stripped from the seromuscular layer in oxygenated (95% O2/ 5% CO2) Ringer's solution (mmol/l: Na^+, 154; K+, 6.3; Cl^−, 137; HCO3^−, 24; pH 7.4) containing 5×10^−6 M indomethacin to prevent endogenous PG production during the stripping procedure. Tissues were then mounted in 3.14 cm^2 aperture Ussing chambers. For Ussing chamber experiments, ileal tissues from one pig were mounted on multiple Ussing chambers and subjected to different in vitro treatments. Tissues were bathed on the serosal and mucosal sides with 10 ml Ringer's solution. The serosal bathing solution contained 10 mM glucose, and was osmotically balanced on the mucosal side with 10 mM mannitol. Bathing solutions were oxygenated (95% O2/5% CO2) and circulated in water-jacketed reservoirs. The spontaneous potential difference (PD) was measured using Ringer-agar bridges connected to calomel electrodes, and the PD was short-circuited through Ag—AgCl electrodes using a voltage clamp that corrected for fluid resistance. Transepithelial electrical resistance (Ω.cm^2) was calculated from the spontaneous PD and short-circuit current (Isc). If the spontaneous PD was between −1.0 and 1.0 mV, tissues were current clamped at ±100 μA for 5 seconds and the PD recorded. Short-circuit current and PD were recorded at 15-minute intervals over a 4-hour experiment.\nAfter tissues were mounted on Ussing chambers, tissues were allowed to acclimate for a period of 30 minutes to achieve stable baseline measurements. Tissues were then treated with varying doses of COMPOUND A (13,14-dihydro-15-keto-16,16-difluoro-PGE1) (0.01 μM, 0.1 μM, and 1 μM) by adding the compound to the mucosal bathing solution (t=30 min).\nData were reported as means±SE. All data were analyzed by using an ANOVA for repeated measures, except where the peak response was analyzed by using a standard one-way ANOVA (Sigmastat, Jandel Scientific, San Rafael, Calif.). A Tukey's test was used to determine differences between treatments following ANOVA."}, "[2]": {"test_system": "ischemic-injured porcine ileal mucosa", "test": "Morphometric assessment of epithelial restitution (histological examination)", "format": "cell-based", "conditions": "Indo 5 μM, COMPOUND A 1 μM, mean±SE, n=3", "description": "as §1\nTissues were taken at 0, 60, and 180 minutes for routine histologic evaluation. Tissues were sectioned (5 μm) and stained with hematoxylin and eosin. For each tissue, 3 sections were evaluated. Four well oriented villi and crypts were identified in each section. Villus length was obtained using a micrometer in the eye piece of a light microscope. In addition, the height of the epithelial-covered portion of each villus was measured. The surface area of the villus was calculated using the formula for the surface area of a cylinder. The formula was modified by subtracting the area of the base of the villus, and multiplying by a factor accounting for the variable position at which each villus was cross-sectioned (Gastroenterology 1993; 104:440-471). The percentage of the villous surface area that remained denuded was calculated from the total surface area of the villus and the surface area of the villus covered by epithelium. The percent denuded villous surface area was used as an index of epithelial restitution.\nIn table 1, values represents means±SE for % villus surface area denuded and Villus height; n=3. Tissues were mammalian ileum subjected to 45 min ischemia in vivo, after which they were mounted in Ussing chambers for monitoring of recovery responses. Tissues were harvested at 0 min, 60 min, and 180 min post-ischemia during the in vitro recovery phase, fixed in 10% buffered formalin, and processed for histological examination according to standard protocols. Indomethacin (Indo) was administered to select tissues a 5 μM, and COMPOUND A was given at 1 μM. Values lacking common superscript.(*,#) differ by P<0.05."}, "[3]": {"test_system": "ischemia-injured porcine ascending colon", "test": "Serosal to mucosal 3H-mannitol fluxes in colon", "format": "cell-based", "conditions": "ischemic porcine ascending colon, FIG. 6", "from_the_text": "(§2) According to the same procedure described in Example 1 except for using colon instead of ileum, recovery of mucosal barrier function in ischemic condition by the COMPOUND A was investigated.\n(§3) A) Change in short circuit current response to COMPOUND A in ischemia-injured porcine ascending colon, B) Trans epithelial electrical resistance (TER) in response to COMPOUND A in ischemia-injured porcine ascending colon and C) Serosal to mucosal ^3H-mannitol fluxes in response to COMPOUND A in ischemia-injured porcine ascending colon were shown in FIGS. 4 to 6 respectively."}, "[4]": {"test_system": "ischemia-injured porcine ascending colon", "test": "Ussing chamber: short circuit current and TER in colon", "format": "cell-based", "conditions": "ischemic porcine ascending colon", "from_the_text": "as §2, §3"}, "[5]": {"test_system": "ischemia-injured porcine ileum", "test": "Mucosal-to-serosal 3H-mannitol flux in Ussing chamber", "format": "cell-based", "conditions": "1 μM; n=4; P<0.05", "description": "as §1, with “Lactated Ringers solution was administered intravenously at a maintenance rate of 15 ml/kg/hr. The ileum was approached via ventral midline incision. Ileal segments were delineated by ligating the intestine at 10 cm intervals, and subjected to ischemia by occluding the local mesenteric blood supply for 45 minutes.” left out\nFollowing the 45-minute ischemic period, tissues were harvested from the pig and the mucosa was stripped from the seromuscular layer in oxygenated (95% O2/ 5% CO2) Ringer's solution (mmol/l: Na^+, 154; K+, 6.3; Cl^−, 137; HCO3^−, 24; pH 7.4) containing 5×10^−6 M indomethacin to prevent endogenous PG production during the stripping procedure. […] The spontaneous potential difference (PD) was measured using Ringer-agar bridges connected to calomel electrodes, and the PD was short-circuited through Ag—AgCl electrodes using a voltage clamp that corrected for fluid resistance. Transepithelial electrical resistance (Ω.cm^2) was calculated from the spontaneous PD and short-circuit current (Isc). […]"}, "barrier function": {"test_system": "barrier function", "conditions": "Am. J. Physiol. Gastrointest. Liver Physiol. 281:G375-81, 2001; cited from earlier work"}, "[6]": {"conditions": "1 μM applied to mucosal side, indomethacin 5×10^−6 M Ringer's, P<0.01"}},
  "note": "“Also recorded” adds a separate entry of the source. Marks after values point to notes of the source that are not given here.",
  "data": [
    {"compound": "CCCCC(F)(F)C(=O)CCC1C(O)CC(=O)C1CCCCCCC(=O)O", "note": "(centres unmarked) [COMPOUND A, 13,14-dihydro-15-keto-16,16-difluoro-PGE1]", "values": [
      {"measurement": "Number of animals with mammary carcinoma", "setting": "mammary carcinoma; 20 μg/kg/day oral gavage, 65 examined (control 12 of 65)", "value": 6},
      {"measurement": "Number of animals with mammary carcinoma", "setting": "mammary carcinoma; 100 μg/kg/day oral gavage, 65 examined (control 12 of 65)", "value": 5},
      {"measurement": "Number of animals with mammary carcinoma", "setting": "mammary carcinoma; 400 μg/kg/day oral gavage, 63 examined (control 12 of 65)", "value": 4},
      {"measurement": "incidence of mammary carcinoma (result in words)", "setting": "mammary carcinoma; 20, 100 or 400 μg/kg/day oral gavage", "value": "reduced the incidence of mammary carcinoma"},
      {"measurement": "TER (result in words)", "setting": "[1]; 0.01 μM, 0.1 μM and 1 μM applied to mucosal side", "value": "dose-dependent increases in TER"},
      {"measurement": "absolute change in Isc (Δ Isc)", "setting": "[1]; 0.01 μM", "value": "2±0.8"},
      {"measurement": "transepithelial electrical resistance (TER) (FIG. 1 legend, words)", "setting": "[1]; 0.1 μM and 1 μM doses, added after 30-min equilibration, n=6", "value": "marked elevations in transepithelial electrical resistance (TER)"},
      {"measurement": "Isc, electrogenic Cl− secretion (result in words)", "setting": "[1]; 0.1 μM and 1 μM, dose-dependent", "value": "sharp and significant (P<0.05) peaks in Isc"},
      {"measurement": "absolute change in Isc (Δ Isc)", "setting": "[1]; 0.1 μM", "value": "16±4.5"},
      {"measurement": "increase in TER", "setting": "[1]; [6]", "value": 2, "unit": "fold"},
      {"measurement": "ΔTER", "setting": "[1]; [6]", "value": "26 Ω"},
      {"measurement": "absolute change in Isc (Δ Isc)", "setting": "[1]; 1 μM", "value": "29±5.1"},
      {"measurement": "Cl− secretion indicated by Isc and ΔIsc (FIG. 2 legend, words)", "setting": "[1]; increasing doses, n=6", "value": "Significant (P<0.05) increases in Cl^− secretion"},
      {"measurement": "Epithelial surface area denuded (%)", "setting": "[2]; recovery time 60 min", "value": "4.2 ± 2.5* %"},
      {"measurement": "Villus height (mm)", "setting": "[2]; recovery time 60 min", "value": "0.21 ± 0.02* mm"},
      {"measurement": "Epithelial surface area denuded (%)", "setting": "[2]; recovery time 180 min", "value": "0 ± 0** %"},
      {"measurement": "Villus height (mm)", "setting": "[2]; recovery time 180 min", "value": "0.20 ± 0.01* mm"},
      {"measurement": "serosal-to mucosal fluxes of 3H-mannitol (result in words)", "setting": "[3]", "value": "recuded serosal-to mucosal fluxes of ^3H-mannitol"},
      {"measurement": "Isc (result in words)", "setting": "[4]; FIG. 4", "value": "increased Isc"},
      {"measurement": "TER (result in words)", "setting": "[4]; FIG. 5", "value": "increased"},
      {"measurement": "3H-mannitol mucosal-to-serosal flux (result in words)", "setting": "[5]", "value": "return of ^3H-mannitol flux to non-ischemic control levels; also recorded: reduced ^3H-mannitol mucosal-to-serosal fluxes to non-ischemic control levels"}
    ]},
    {"compound": "deoxy-PGE1", "values": [
      {"measurement": "effects on barrier function (result in words)", "setting": "barrier function", "value": "had not effects"}
    ]},
    {"compound": "COc1ccc2c(c1)c(CC(=O)O)c(C)n2C(=O)c1ccc(Cl)cc1", "note": "[Indo, Indomethacin, reference compound]", "values": [
      {"measurement": "Epithelial surface area denuded (%)", "setting": "[2]; recovery time 60 min", "value": "6.6 ± 2.6* %"},
      {"measurement": "Villus height (mm)", "setting": "[2]; recovery time 60 min", "value": "0.16 ± 0.01* mm"},
      {"measurement": "Epithelial surface area denuded (%)", "setting": "[2]; recovery time 180 min", "value": "0 ± 0** %"},
      {"measurement": "Villus height (mm)", "setting": "[2]; recovery time 180 min", "value": "0.14 ± 0.03* mm"}
    ]}
  ]
}
